Reference: patent US11731964B2, “Benzamide antibacterial agents” (Purdue Research Foundation, priority 2018, dated 2023)
In brackets after ≈: the same amount, converted by molar mass. Where two headings read alike, the source gives them in different places.

Tests used:
[1] = test system: MRSA NRS119; assay: MIC and MBC; assay type: cell-based, Staphylococcus aureus; conditions: Staphylococcus aureus, MRSA NRS119
Method: (§1) Bacteria were cultured in cation-adjusted Mueller Hinton Broth (for strains in Tables 1 and 4) or Brain Heart Infusion broth (for Enterococcus faecium) or Tryptic Soy Broth (all other bacteria) in a 96-well plate at 37° C. for at least 20 hours. The MIC was classified as the lowest concentration where no visual growth of bacteria was observed. The minimum bactericidal concentration (MBC) was tested by spotting 4 μL from wells with no growth onto Tryptic Soy Agar (TSA) plates. Plates were incubated at 37° C. for at least 18 hours before recording the MBC.

[2] = test system: MRSA USA400 (NRS123); assay type: cell-based, Staphylococcus aureus
Description: Resistance was classified as a greater than four-fold increase in the initial MIC, as reported elsewhere^30 (Farrell D J, Robbins M, Rhys-Williams W, Love W G. Investigation of the potential for mutational resistance to XF-73, retapamulin, mupirocin, fusidic acid, daptomycin, and vancomycin in methicillin-resistant Staphylococcus aureus isolates during a 55-passage study. Antimicrob Agents Chemother. 2011; 55(3):1177-81).

[3] = test system: human colorectal (Caco-2) cells; assay: Toxicity profile, MTS viability assay; assay type: cell-based; conditions: 24 hours, tested 2 to 256 μg/mL
Method: (§2) Compound F6 was assayed (at concentrations ranging from 2 μg/mL to 256 μg/mL) against murine macrophage (J774) and human colorectal (Caco-2) epithelial cell lines to determine the potential toxic effect to mammalian cells in vitro. Caco-2 cells were cultured in Dulbecco's Modified Eagle Medium (DMEM) supplemented with 20% fetal bovine serum (FBS), non-essential amino acids (1×), and penicillin-streptomycin at 37° C. with CO2 (5%). J774 cells were cultured in DMEM supplemented with 10% FBS. Upon reaching 85-90% confluency, cells were transferred to all wells of a 96-well tissue-culture treated plate. The cells were incubated in serum-free medium with the compounds (in triplicate) at 37° C. with CO2 (5%) for 24 hours. Cells exposed to equivalent concentrations of DMSO served as the negative control. The assay reagent MTS 3-(4,5-dimethylthiazol-2-yl)-5-(3-carboxymethoxyphenyl)-2-(4-sulfophenyl)-2H-tetrazolium) (Promega, Madison, Wis., USA) was subsequently added and the plate was incubated for four hours. Absorbance readings (at OD490) were taken using a kinetic microplate reader (Molecular Devices, Sunnyvale, Calif., USA). The quantity of viable cells after treatment with each compound was expressed as a percentage of the viability of DMSO-treated control cells (average of triplicate wells±standard deviation). The toxicity data were analyzed via a two-way ANOVA, with post hoc Sidak's multiple comparisons test (P<0.05), utilizing GraphPad Prism 6.0 (GraphPad Software, La Jolla, Calif., USA).

[4] = test system: murine macrophage (J774) cells; assay: Toxicity profile, MTS viability assay; assay type: cell-based
Method: as §2

[5] = test system: Escherichia coli BW25113; assay: MIC against Gram-negative pathogens; assay type: cell-based; conditions: Escherichia coli BW25113 (wild-type); read-out: MIC
Method: as §1

[6] = test system: Pseudomonas aeruginosa ATCC 15442; assay: MIC against Gram-negative pathogens; assay type: cell-based
Method: as §1

[7] = test system: Acinetobacter baumannii ATCC 19606; assay: MIC against Gram-negative pathogens; assay type: cell-based
Method: as §1

[8] = test system: Klebsiella pneumoniae BAA-1706; assay: MIC against Gram-negative pathogens; assay type: cell-based
Method: as §1

[9] = test system: MRSA NRS385 (USA500); assay: MIC and MBC; assay type: cell-based; conditions: Staphylococcus aureus, MRSA NRS385 (USA500)
Method: as §1

[10] = test system: E. faecium ATCC; assay: MIC and MBC; assay type: cell-based; conditions: Enterococcus faecium, E. faecium ATCC
Method: as §1

[11] = test system: MRSA NRS387 (USA800); assay: MIC and MBC; assay type: cell-based; conditions: Staphylococcus aureus, MRSA NRS387 (USA800)
Method: as §1

[12] = test system: MRSA NRS386 (USA700); assay: MIC and MBC; assay type: cell-based; conditions: Staphylococcus aureus, MRSA NRS386 (USA700)
Method: as §1

[13] = test system: MRSA NRS123 (USA400); assay: MIC and MBC; assay type: cell-based; conditions: Staphylococcus aureus, MRSA NRS123 (USA400)
Method: as §1

[14] = test system: MRSA NRS384 (USA300); assay: MIC and MBC; assay type: cell-based; conditions: Staphylococcus aureus, MRSA NRS384 (USA300)
Method: as §1

[15] = test system: Escherichia coli JW5503-1 (ΔtolC); assay: MIC against Gram-negative pathogens (efflux pump knockout); assay type: cell-based
Method: as §1

[16] = test system: VISA NRS1; assay: MIC and MBC; assay type: cell-based, S. aureus; conditions: Staphylococcus aureus, VISA NRS1
Method: as §1

[17] = test system: VRSA VRS12; assay: MIC and MBC; assay type: cell-based, S. aureus; conditions: Staphylococcus aureus, VRSA VRS12
Method: as §1

[18] = test system: S. aureus ATCC 25923; assay: MIC, broth microdilution; assay type: cell-based; conditions: Staphylococcus aureus, ATCC25923; S. aureus ATCC 25923; read-out: MIC
Procedure, shortened: (§3)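 MIC = lowest concentration with no visual growth after ≥20 h at 37° C in 96-well broth culture (CA-MHB, BHI for E. faecium, or TSB by strain). MBC: 4 μL from no-growth wells spotted on TSA, incubated ≥18 h at 37° C.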

[19] = test system: E. faecalis ATCC 29212; assay: MIC, broth microdilution; assay type: cell-based; conditions: Enterococcus faecalis, ATCC29212; E. faecalis ATCC 29212; read-out: MIC
Procedure, shortened: as §3

[20] = test system: MRSA ATCC 33592; assay: MIC, broth microdilution; assay type: cell-based; conditions: Staphylococcus aureus; MRSA ATCC 33592; read-out: MIC
Procedure, shortened: as §3

[21] = test system: VRE (E. faecalis) ATCC 51575; assay: MIC, broth microdilution; assay type: cell-based; conditions: VRE (E. faecalis) ATCC 51575; read-out: MIC
Procedure, shortened: as §3

`CC1CC(C)CN(S(=O)(=O)c2ccc(C(=O)Nc3nnc(-c4cccs4)o3)cc2)C1` (stereo not drawn) [Compound F6] was tested, and the MBC ([1]; read-out: MBC) was over 128 µg/mL, the MIC ([1]; read-out: MIC) was 2 µg/mL (≈ 4.48 µM) and the “increase in MIC after the tenth passage” value ([2]; MRSA USA400) was “one-fold increase”. For the same compound, the “increase in MIC by the 14th passage from the original MIC” value ([2]; MRSA USA400) was “no additional increase in MIC”, the “change in MIC over nine passages” value ([2]; MRSA USA400, passages 1-9) was “remained unchanged” and the “concentration up to which non-toxic” value [3] was “up to 128 μg/mL”. The “concentration up to which non-toxic” value ([4]; J774 cells, 24 hours, tested 2 to 256 μg/mL) was “up to 128 μg/mL”, the “non-toxic concentration, fold higher than the MIC of F6 against MRSA” value ([4]; mouse and human, 24 h) was 63 fold and the MIC [5] was over 128 µg/mL. The MIC [6] was “not active”, the MIC ([6]; ATCC15442, read-out: MIC) was over 128 µg/mL and the MIC [7] was “not active”. For the same compound, the MIC ([7]; ATCC19606, read-out: MIC) was 128 µg/mL (≈ 287 µM), the MIC [8] was “not active” and the MIC ([8]; BAA1706, read-out: MIC) was over 128 µg/mL. It also gave an MBC ([9]; read-out: MBC) of over 128 µg/mL, an MIC ([9]; read-out: MIC) of 2 µg/mL (≈ 4.48 µM) and an MBC ([10]; read-out: MBC) of 128 µg/mL (≈ 287 µM). It also gave an MIC ([10]; read-out: MIC) of 2 µg/mL (≈ 4.48 µM), an MBC ([11]; read-out: MBC) of over 128 µg/mL and an MIC ([11]; read-out: MIC) of 2 µg/mL (≈ 4.48 µM). It also gave an MBC ([12]; read-out: MBC) of over 128 µg/mL, an MIC ([12]; read-out: MIC) of 2 µg/mL (≈ 4.48 µM) and an MBC ([13]; read-out: MBC) of over 128 µg/mL. The MIC ([13]; read-out: MIC) was 2 µg/mL (≈ 4.48 µM), the MBC ([14]; read-out: MBC) was over 128 µg/mL and the MIC ([14]; read-out: MIC) was 2 µg/mL (≈ 4.48 µM). It also gave an MIC [15] of 2 µg/mL (≈ 4.48 µM), an MBC ([16]; read-out: MBC) of over 128 µg/mL and an MIC ([16]; read-out: MIC) of 2 µg/mL (≈ 4.48 µM). For the same compound, the MBC ([17]; read-out: MBC) was over 128 µg/mL, the MIC ([17]; read-out: MIC) was 2 µg/mL (≈ 4.48 µM) and the MIC [18] was 2 µg/mL (≈ 4.48 µM). It also gave an MIC [19] of 4 µg/mL (≈ 8.96 µM), an MIC [20] of 2 µg/mL (≈ 4.48 µM) and an MIC [21] of 4 µg/mL (≈ 8.96 µM).
